Test results from patent publication US20150320773A1, “TREATMENT OF INFLAMMATION” (Vascular Biogenics Ltd., priority 2011, published 2015).
Values belong to the molecule of their own block, whether it stands above or below them.

Key:
[1] = system: Human monocytes (CD14+ cells); assay: In vitro cell migration (trans-well chemotaxis) assay of human monocytes; assay type: cell-based; settings: for reduction of monocyte chemotaxis towards MCP-1 and RANTES (50 ng/ml each): 30 min pre-incubation, PC 5 μg/ml, partially oxidized PAPC 40 μg/ml, PGPC 5 μg/ml, VB-201 5 μg/ml
Method: Following incubation, cells were loaded to the upper chamber and allowed to migrate for 3.5 hours towards 0.5% fetal bovine serum/RPMI-1640 medium supplemented with recombinant human MCP-1 and RANTES (50 ng/ml each).
In order to further ascertain the significance of ERK1/2 phosphorylation and MEK1/2 phosphorylation to monocyte chemotaxis, the effect of the RAF inhibitor GW5074, which reduces MEK and ERK phosphorylation, on monocyte chemotaxis was determined in a trans-well migration assay using a combination of MCP-1 ([…]) and RANTES (70 ng/ml) as attractant. Monocytes were pre-treated with 5 μM GW5074 for 30 minutes prior to seeding in the migration chamber.
For this purpose, monocytes from healthy donors were pre-incubated for 30 min with either solvent (0.005% ethanol/PBS), phosphatidylcholine (PC; 5 μg/ml), partially oxidized PAPC (24 h oxidation; 40 μg/ml) or PGPC (5 μg/ml), and allowed to migrate towards recombinant human MCP-1 (CCL2; ligand for CCR2) and RANTES (CCL5; ligand for CCR1, CCR3, CCR5, US28) as attractants (50 ng/ml each). […]

TLR4 = molecular target: T1, TLR4 (Mus musculus, UniProt Q9QUK6); settings: RAW 264.7 murine macrophages
T1 sequence (Q9QUK6 26-835): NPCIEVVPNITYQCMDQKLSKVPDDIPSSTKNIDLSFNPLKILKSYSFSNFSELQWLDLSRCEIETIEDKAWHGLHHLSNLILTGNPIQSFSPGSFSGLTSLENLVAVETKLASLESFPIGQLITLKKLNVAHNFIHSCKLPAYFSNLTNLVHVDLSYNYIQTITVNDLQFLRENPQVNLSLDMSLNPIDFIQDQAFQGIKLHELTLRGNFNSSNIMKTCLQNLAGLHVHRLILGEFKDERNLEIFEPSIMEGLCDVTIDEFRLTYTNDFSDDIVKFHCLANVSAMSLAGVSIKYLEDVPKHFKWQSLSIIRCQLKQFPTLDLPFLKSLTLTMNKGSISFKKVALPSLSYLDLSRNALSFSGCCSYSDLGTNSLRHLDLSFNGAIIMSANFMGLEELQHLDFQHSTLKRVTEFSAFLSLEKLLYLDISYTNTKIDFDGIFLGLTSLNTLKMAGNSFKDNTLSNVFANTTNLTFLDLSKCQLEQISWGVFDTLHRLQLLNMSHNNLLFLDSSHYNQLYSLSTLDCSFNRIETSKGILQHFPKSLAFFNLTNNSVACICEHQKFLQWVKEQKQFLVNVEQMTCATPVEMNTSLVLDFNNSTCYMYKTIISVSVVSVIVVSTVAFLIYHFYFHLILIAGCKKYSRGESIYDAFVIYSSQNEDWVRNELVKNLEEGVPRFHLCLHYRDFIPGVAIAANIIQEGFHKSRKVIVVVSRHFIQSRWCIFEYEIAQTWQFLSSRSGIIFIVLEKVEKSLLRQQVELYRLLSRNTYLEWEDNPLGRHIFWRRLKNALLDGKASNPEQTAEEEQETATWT
T1 sequence (Q9JHF9 19-160 partner): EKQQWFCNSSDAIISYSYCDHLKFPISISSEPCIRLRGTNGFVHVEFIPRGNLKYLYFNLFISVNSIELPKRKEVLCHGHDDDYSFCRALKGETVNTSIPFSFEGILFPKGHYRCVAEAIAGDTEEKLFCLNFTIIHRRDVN
Method: Cells were washed and re-suspended in lysis buffer containing 1:100 dithiothreitol (DTT) (Bio-Lab), and phosphatase and protease inhibitors (Thermo Scientific). Samples were loaded on a precasted Criterion TGX gel (BIO-RAD, UK) and transferred onto nitrocellulose membrane. Blots were blocked with 5% milk or bovine serum albumin (BSA) in TBST (Tris buffer saline with TWEEN 20) for 1 hour, followed by incubation with primary and secondary antibodies. Membranes were developed using the ECL kit (Thermo Scientific).
Toll-like receptors were activated in mouse BMDCs (bone marrow dendritic cells) by specific agonists, and the effect of receptor activation was determined via Western blot for phosphorylation of p38 MAP kinase, which is downstream of TLRs.

human monocytes = assay: ROS formation in human monocytes (DCF, FACS); assay type: cell-based; settings: overnight; VB-201 10 μg/ml, PGPC 10 μg/ml, OxPAPC 100 μg/ml; relative to PBS
Method: Detection of ROS was performed through FACS quantification of the oxidation product dichlorodihydrofluorescein (DCF). Data are mean±SD from 3-4 experiments performed in duplicates. FIG. 23B is a histogram from a representative experiment showing DCF levels in treated cells.

THP-1 cells = assay: Trans-well chemotaxis assay of THP-1 cells; assay type: cell-based, human; settings: Wortmannin 1 μmol/L, Rapamycin 1.1 μmol/L, GW5074 1 μmol/L
Method: For chemo-attraction of monocytes, RANTES (100 ng/ml), MIP-1α (50 ng/ml) or MCP-1 (50 ng/ml) were dissolved in 0.5% fetal bovine serum(FBS)/RPMI-1640 medium and placed at the lower chamber of QCM™ 24-well migration assay plate (Corning-Costar; 5 μm pores). For chemo-attraction of CD4+ cells, 0.5% FBS/RPMI-1640 solution containing RANTES (100 ng/ml) and SDF-1α (50 ng/ml) was used, using the same plate setting. Migration assay was conducted by seeding 300,000 treated cells in the upper chamber, followed by incubation of 3-4 hours. Subsequently, the number of cells which migrated to the medium in the lower compartment was determined by FACS.
Data are mean f SD from 4 experiments in triplicates, normalized to untreated cells. **, p<0.001.

Molecule: phosphatidylcholine [PC, reference compound]
reduction of monocyte chemotaxis towards MCP-1 and RANTES (50 ng/ml each) [1]: did not reduce the number of migrating cells

Molecule: CCCCCCCCOC[C@H](COP(=O)([O-])OCC[N+](C)(C)C)OCCCCC(=O)O [VB-207, (R)-1-octyl-2-(4′-carboxyl)butyl-sn-glycero-3-phosphocholine]
LPS-induced signaling (TLR4): neither VB-207 nor OB-VB207 exhibited such an inhibitory effect

ROS formation in human monocytes (human monocytes): no effect on ROS formation
Molecule: CCCCCCCCCCCCCCCC(=O)OCC(COP(=O)([O-])OCC[N+](C)(C)C)OC(=O)CCCC(=O)O (stereo not drawn) [PGPC, 1-palmitoyl-2-glutaryl-phosphatidylcholine, reference compound]
reduction of monocyte chemotaxis towards MCP-1 and RANTES (50 ng/ml each) [1]: ~50%

Molecule: O=C1Nc2ccc(I)cc2C1=Cc1cc(Br)c(O)c(Br)c1 [GW5074, 3-(3,5-dibromo-4-hydroxy-benzylidene)-5-iodo-1,3-dihydro-indol-2-one, reference compound]
reduction of monocyte migration ([1]; 5 μM GW5074, 30 minutes, MCP-1 (50 ng/nl) and RANTES (70 ng/ml)): about 80%
chemotaxis of THP-1 cells in vitro (THP-1 cells): decrease chemotaxis of THP-1 cells
